# According to PMC5344979, “Stabilizing short-lived Schiff base derivatives of 5-aminouracils that activate mucosal-associated invariant T cells” (Nature Communications, 2017):
# Assays:
# [1] = test system: human MAIT TCR-transduced Jurkat T cells and MR1-overexpressed C1R cells; experiment: MAIT reporter cell activation assay (surface CD69 on Jurkat.MAIT); type: cell-based; settings: Jurkat.MAIT + C1R.MR1, 16 h
# Procedure: MAIT activation was evaluated using a well established reporter assay[17] by co-culturing two cell lines (human MAIT TCR-transduced Jurkat T cells and MR1-overexpressed C1R cells, Fig. 3g).
# MAIT reporter cell activation assays and MR1 upregulation assays were performed by slight modifications to reported methods. Briefly, Jurkat cells transduced with genes encoding a MAIT TCR comprising the TRAV1-2-TRAJ33 invariant α chain, and a TRBV6-1 β chain, were tested for activation by co-incubation with compounds and C1R antigen-presenting cells expressing MR1 (CIR.MR1) for 16 h or over a time course as indicated. Cells were subsequently stained with PE-Cy7-conjugated anti-CD3 (UCHT1, eBioscience, 1:300), and APC-conjugated anti-CD69 (BD, 1:25) antibodies as well as biotinylated anti-MR1 mAb 26.5, a gift from Dr Ted Hansen, Washington University School of Medicine, St Louis, MO[53], followed by Streptavidin-PE (BD, 1:1,000), before analysis by on a FACS CantoII (BD) flow cytometer. Activation of Jurkat.MAIT was measured by an increase in surface CD69 expression. MR1 expression was detected on gated C1R.MR1 cells in the same assay. […]
# MAIT reporter cell activation assay
# Conducted as described previously16. Jurkat cells transduced with genes encoding a MAIT TCR comprising the TRAV1-2-TRAJ33 invariant α chain and a TRBV6-1 β chain were co-incubated with C1R antigen presenting cells expressing MR1 (CIR.MR1) in the presence of graded amounts of ligands for 16 h. Cells were subsequently stained with PE-Cy7-conjugated anti-CD3 (eBioscience), and APC-conjugated anti-CD69 (BD Biosciences) antibodies, followed by Streptavidin-PE (BD Biosciences), before analysis by flow cytometry. Activation of Jurkat.MAIT cells was measured by an increase in surface CD69 expression.
# [2] = Stability in aqueous media (LCMS); settings: for t1/2: C0 0.065 mM
# Procedure: (§1) Stock solutions of either crude (3a, 3b and 9) or purified compounds (3c, 10 and 11) in DMSO-d6, with a known concentration calibrated using the PULCON NMR technique[52], were dissolved in aqueous buffers, such as TBS buffer (10 mM Tris, 150 mM NaCl, pH 8.0), PBS (pH 7.4), MilliQ water (pH 6.8), or aqueous ammonium acetate buffer (20 mM, pH 5.4, 150 mM NaCl). Consumption of 3 was monitored by LCMS.
# (§2) Stability in aqueous media. TBS buffer (10 mM Tris, 150 mM NaCl,
# (§3) pH 8.0), PBS (pH 7.4), MilliQ water (pH 6.8), or ammonium acetate buffer (20 mM, 150 mM
# (§4) The initial concentration was quantified by measuring the LCMS UV chromatogram
# (§5) absorbance peak area at 365 nm. Data shown as % of initial concentration.
# physchem = settings: for half-life: PBS buffer
# Procedure: as §1, §2, §3, §4, §5
# Stability in DMSO (NMR) = type: physicochemical; settings: for days at room temperature
# MR1 on C1R.MR1 cells = experiment: Upregulation of MR1 surface expression; type: cell-based, human; settings: 24 h time course, mAb 26.5
# Procedure: MAIT reporter cell activation assays and MR1 upregulation assays were performed by slight modifications to reported methods. Briefly, Jurkat cells transduced with genes encoding a MAIT TCR comprising the TRAV1-2-TRAJ33 invariant α chain, and a TRBV6-1 β chain, were tested for activation by co-incubation with compounds and C1R antigen-presenting cells expressing MR1 (CIR.MR1) for 16 h or over a time course as indicated. Cells were subsequently stained with PE-Cy7-conjugated anti-CD3 (UCHT1, eBioscience, 1:300), and APC-conjugated anti-CD69 (BD, 1:25) antibodies as well as biotinylated anti-MR1 mAb 26.5, a gift from Dr Ted Hansen, Washington University School of Medicine, St Louis, MO[53], followed by Streptavidin-PE (BD, 1:1,000), before analysis by on a FACS CantoII (BD) flow cytometer. Activation of Jurkat.MAIT was measured by an increase in surface CD69 expression. MR1 expression was detected on gated C1R.MR1 cells in the same assay.
# human MR1 = target: T1, human MR1 (Homo sapiens, UniProt Q95460); experiment: MR1 refolding with ligand; type: binding; settings: in the presence of the compound
# T1 construct: Genes encoding soluble human MR1 or human β2m were expressed; made in house
# Procedure: E. coli were pelleted and resuspended in a buffer containing 50 mM Tris, 25% (w/v) sucrose, 1 mM EDTA, 10 mM DTT pH 8.0.
# human MAIT cells = experiment: In vitro PBMC stimulation assay (intracellular cytokine staining); type: cell-based; settings: human PBMCs alone or with THP-1 cells
# Procedure: To assess the ability of 11 to activate MAIT cells, human PBMCs were cultured alone, or with THP-1 cells, in the presence of the compounds, and cytokine production assessed by intracellular cytokine staining.
# Stimulation of PBMCs was performed essentially as previously described. Briefly, 5 × 10^5 PBMCs were cultured, alone or with 1 × 10^5 THP-1 cells, overnight with or without compounds 3c or 11 at a range of doses or with PMA and ionomycin (5 ng ml^−1 and 1 μg ml^−1 final concentrations, respectively) as a positive control. BD GolgiStop (1:1,000 dilution) was added after the first hour of stimulation. Cells were stained for surface markers using human MR1-5-OP-RU tetramer (PE, 1:300), and monoclonal antibodies to CD3 (PE-CF594, UCHT1, BD Horizon, 1:50), CD161 (PE-Cy7, HP-3G10, Biolegend, 1:50) for 30 min on ice and fixed in 1% paraformaldehyde before cytokine production by MAIT cells was detected by intracellular cytokine staining with monoclonal antibodies to TNF (APC, MAb11, eBioscience, 1:50) and IFNγ (AlexaFluor700, B27, BD 1:50) in the presence of 0.3% saponin. Data was acquired on a BD LSR-Fortessa and analysed using FlowJo software (Tree Star).
# [3] = PBS pH 7.4, 37 °C, DMSO stock diluted into buffer
# T1 sequence (P61769 21-119): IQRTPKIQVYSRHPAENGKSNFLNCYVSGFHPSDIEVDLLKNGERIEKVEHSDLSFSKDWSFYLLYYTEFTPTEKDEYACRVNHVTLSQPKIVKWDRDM
# T1 sequence (Q95460 23-302): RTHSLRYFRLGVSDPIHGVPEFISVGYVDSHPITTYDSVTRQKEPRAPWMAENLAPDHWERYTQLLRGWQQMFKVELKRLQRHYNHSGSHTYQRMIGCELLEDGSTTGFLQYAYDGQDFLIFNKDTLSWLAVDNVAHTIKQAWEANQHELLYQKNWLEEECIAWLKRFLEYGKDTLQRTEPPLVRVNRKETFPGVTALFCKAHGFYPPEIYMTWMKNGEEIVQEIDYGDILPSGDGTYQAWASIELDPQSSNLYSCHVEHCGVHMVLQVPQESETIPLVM
structure (smiles),measurement,setting,value
"CC(=O)C(C)=Nc1c(NCC(O)C(O)C(O)CO)[nH]c(=O)[nH]c1=O [3a, 5-(1-methyl-2-oxopropylideneamino)-6-D-ribitylaminouracil]",EC50,[1],24 nM
same,time to complete degradation,"[2]; pH 8.0, 15 °C",< 5 min
"O=CC=Nc1c(NCC(O)C(O)C(O)CO)[nH]c(=O)[nH]c1=O [3b, 5-(2-oxoethylideneamino)-6-D-ribitylaminouracil]",half-life at 0.065 mM,"physchem; TBS buffer, pH 8",0.3 h
same,EC50,[1],0.51 nM
"CC(=O)C=Nc1c(NCC(O)C(O)C(O)CO)[nH]c(=O)[nH]c1=O [3c, 5-(2-oxopropylideneamino)-6-D-ribitylaminouracil]",half-life at 1 mM,"physchem; MilliQ water, pH 6.8",7.68 h
same,half-life,physchem; pH 7.4,0.2 h
same,half-life,physchem; pH 8,14 h
same,half-life at 0.065 mM,"physchem; TBS buffer, pH 8",14.4 h
same,half-life at 0.25 mM,"physchem; TBS buffer, pH 8",14.9 h
same,half-life at 10 mM,"physchem; TBS buffer, pH 8",8.63 h
same,stable in DMSO solution,Stability in DMSO (NMR),> 95%
same,time at which MR1 upregulation peaked,MR1 on C1R.MR1 cells,4 h
same,t1/2,"[2]; PBS pH 7.4, 15 °C",5.7 h
same,t1/2,[2]; [3],1.47 h
same,t1/2,"[2]; pH 5.4 ammonium acetate buffer, 15 °C",0.733 h
same,t1/2,"[2]; pH 5.4 ammonium acetate buffer, 37 °C",0.217 h
same,half-life,"[2]; pH 6.8 (MilliQ water), 15 °C, 0.065 mM",12 h
same,t1/2,"[2]; pH 6.8 MilliQ water, 15 °C",12.3 h
same,t1/2,"[2]; pH 6.8 MilliQ water, 37 °C",2.18 h
Cc1cnc2c(=O)[nH]c(=O)nc-2n1C[C@H](O)[C@H](O)[C@H](O)CO [4c],EC50,[1],> 100 nM
"Nc1c(NC[C@H](O)[C@H](O)[C@H](O)CO)[nH]c(=O)[nH]c1=O [compound 1, 5-amino-6-D-ribitylaminouracil, reference compound]",EC50,[1],18 nM
CC(=O)/C=N/c1c(N(C)C[C@H](O)[C@H](O)[C@H](O)CO)[nH]c(=O)[nH]c1=O [compound 9],EC50,[1],14 ± 14 nM
same,t1/2,"[2]; PBS pH 7.4, 15 °C",1.92 h
same,t1/2,[2]; [3],0.65 h
CC(=O)/C=C/c1c(N(C)C[C@H](O)[C@H](O)[C@H](O)CO)[nH]c(=O)[nH]c1=O [compound 10],EC50,[1],> 10000 nM
same,t1/2,"[2]; PBS pH 7.4, 15 °C",10.2 h
same,t1/2,[2]; [3],2.25 h
CC(=O)/C=C/c1c(CC[C@H](O)[C@H](O)[C@H](O)CO)[nH]c(=O)[nH]c1=O [compound 11],refolding of human MR1,human MR1,readily refolded
same,MR1 surface expression,MR1 on C1R.MR1 cells,continued to increase over 24 h
same,cytokine production by human MAIT cells,human MAIT cells,stimulated the production of interferon-γ (IFNγ) and tumour necrosis factor (TNF)
same,aqueous stability,"[2]; PBS buffer pH 7.4, 37 °C, 5 days",no degradation observed over 5 days
